Molecular target: unphosphorylated-BTK kinase domain (UP-BTK), GST-tagged human BTK (389-659aa) (Homo sapiens (Human), UniProt Q06187)
Assay: BTK kinase Lanthascreen binding assay
Conditions: Lanthascreen tracer competition, 60 minutes incubation; pIC50 = negative log of the IC50 in molar
In short: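 Tracer-displacement binding assay against the non-phosphorylated enzyme, read by Lanthascreen. Reported: pIC50.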

unphosphorylated-BTK kinase domain (UP-BTK), GST-tagged human BTK (389-659aa), sequence (Q06187 389-659): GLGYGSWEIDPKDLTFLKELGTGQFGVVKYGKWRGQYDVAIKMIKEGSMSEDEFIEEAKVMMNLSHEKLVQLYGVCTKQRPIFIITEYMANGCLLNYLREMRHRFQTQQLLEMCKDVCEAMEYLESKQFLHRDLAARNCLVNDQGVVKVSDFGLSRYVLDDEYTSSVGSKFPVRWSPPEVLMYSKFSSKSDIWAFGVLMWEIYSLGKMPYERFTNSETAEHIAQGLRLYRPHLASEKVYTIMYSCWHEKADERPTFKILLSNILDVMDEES

BTK_I_binding pIC50	Structure (SMILES)
7.1	C=CC(=O)N1CCC[C@@H](NC(=O)c2sc3nccc4c3c2NC(=O)N4c2ccc(Oc3ccc(C)nc3)cc2C)C1 [Example 783, (R)—N-(1-Acryloylpiperidin-3-yl)-5-(2-methyl-4-((6-methylpyridin-3-yl)oxy)phenyl)-4-oxo-4,5-dihydro-3H-1-thia-3,5,8-triazaacenaphthylene-2-carboxamide]
5.9	C=CC(=O)N1CCC(C(=O)Nc2sc3nccc4c3c2NC(=O)N4c2ccc(Oc3ccccc3)cc2C)CC1 [Example 820, 1-Acryloyl-N-(5-(2-methyl-4-phenoxyphenyl)-4-oxo-4,5-dihydro-3H-1-thia-3,5,8-triazaacenaphthylen-2-yl)piperidine-4-carboxamide]

Second part, the compound before the results:

Structure (SMILES)	BTK_I_binding pIC50
C=CC(=O)N1CCC[C@@H](NC(=O)c2sc3nccc4c3c2NC(=O)N4c2cccc(-c3ccncc3)c2)C1 [Example 631, (R)—N-(1-Acryloylpiperidin-3-yl)-4-oxo-5-(3-(pyridin-4-yl)phenyl)-4,5-dihydro-3H-1-thia-3,58-triazaacenaphthylene-2-carboxamide]	5.9
Cc1cc(OC2CCCC2)ncc1N1C(=O)Nc2c(C(=O)N[C@@H]3CCCNC3)sc3nccc1c23 (single isomer, unassigned) [Example 761, (R)-5-(*S)-(6-(Cyclopentyloxy)-4-methylpyridin-3-yl)-4-oxo-N-(piperidin-3-yl)-4,5-dihydro-3H-1-thia-3,5,8-triazaacenaphthylene-2-carboxamide]	7.1
C=CC(=O)N1CCC[C@@H](NC(=O)c2sc3nccc4c3c2NC(=O)N4c2ccc(OC(C)C)nc2C)C1 [Example 732, (R)—N-(1-Acryloylpiperidin-3-yl)-5-(6-isopropoxy-2-methylpyridin-3-yl)-4-oxo-4,5-dihydro-3H-1-thia-3,5,8-triazaacenaphthylene-2-carboxamide]	<6
CC(C)Oc1cccc(N2C(=O)Nc3c(C(=O)N[C@@H]4CCCNC4)sc4nccc2c34)c1 [Example 637, (R)-5-(3-Isopropoxyphenyl)-4-oxo-N-(piperidin-3-yl)-4,5-dihydro-3H-1-thia-3,5,8-triazaacenaphthlene-2-carboxamide]	5.7

Same assay, conditions: pIC50 = negative log of the IC50 in molar; 60 minutes incubation, 50 nM Tracer 236

Structure (SMILES)	BTK_I_binding pIC50
COCC(=O)N1CCC[C@@H](NC(=O)c2sc3nccc4c3c2NC(=O)N4c2ccc(Oc3ccccc3)cc2C)C1 [Example 95, (R)—N-(1-(2-Methoxyacetyl)piperidin-3-yl)-5-(2-methyl-4-phenoxyphenyl)-4-oxo-4,5-dihydro-3H-1-thia-3,5,8-triazaacenaphthylene-2-carboxamide]	7.4
C=C(F)C(=O)N1CCC[C@@H](NC(=O)c2sc3nccc4c3c2NC(=O)N4c2ccc(Oc3ccccc3)cc2C)C1 [Example 48, (R)—N-(1-(2-Fluoroacryloyl)piperidin-3-yl)-5-(2-methyl-4-phenoxyphenyl)-4-oxo-4,5-dihydro-3H-1-thia-3,5,8-triazaacenaphthylene-2-carboxamide]	6.9
Cc1cc(Oc2ccccc2)cc(F)c1N1C(=O)Nc2c(C(=O)N[C@@H]3CCCN(C)C3)sc3nccc1c23 [Example 222, (R)-5-(2-Fluoro-6-methyl-4-phenoxyphenyl)-N-(1-methylpiperidin-3-yl)-4-oxo-4,5-dihydro-3H-1-thia-3,5,8-triazaacenaphthylene-2-carboxamide]	6.7
CNCC(=O)N1CCC[C@@H](NC(=O)c2sc3nccc4c3c2NC(=O)N4c2ccc(Oc3ccccc3)cc2C)C1 (single isomer, unassigned) [Example 183, (R)-5-(*S)-(2-Methyl-4-phenoxyphenyl)-N-(1-(2-(methylamino)acetyl)piperidin-3-yl)-4-oxo-4,5-dihydro-3H-1-thia-3,5,8-triazaacenaphthylene-2-carboxamide]	7.5
Cc1cc(OC2CC2)ccc1N1C(=O)Nc2c(C(=O)N[C@@H]3CCCN(C(=O)/C(C#N)=C/C4CC4)C3)sc3nccc1c23 [Example 185, (R,E)-N-(1-(2-Cyano-3-cyclopropylacryloyl)piperidin-3-yl)-5-(4-cyclopropoxy-2-methylphenyl)-4-oxo-4,5-dihydro-3H-1-thia-3,5,8-triazaacenaphthylene-2-carboxamide]	7.5
C=CC(=O)N1CCC[C@@H](NC(=O)c2sc3nccc4c3c2NC(=O)N4c2ccc(Oc3ccccc3)cc2)C1 [Example 18, (R)—N-(1-Acryloylpiperidin-3-yl)-4-oxo-5-(4-phenoxyphenyl)-4,5-dihydro-3H-1-thia-3,5,8-triazaacenaphthylene-2-carboxamide]	8.2
C=CC(=O)N1CCC[C@@H](NC(=O)c2sc3nccc4c3c2NC(=O)N4c2ccc(Oc3ccccc3)cc2Cl)C1 [Example 15, (R)—N-(1-Acryloylpiperidin-3-yl)-5-(2-chloro-4-phenoxyphenyl)-4-oxo-4,5-dihydro-3H-1-thia-3,5,8-triazaacenaphthylene-2-carboxamide]	7.6
C#CC(=O)N1CCC[C@@H](NC(=O)c2sc3nccc4c3c2NC(=O)N4c2ccc(Oc3ccccc3)cc2C)C1 (single isomer, unassigned) [Example 46, (R)-5-(*S)-(2-methyl-4-phenoxyphenyl)-4-oxo-N-(1-propioloylpiperidin-3-yl)-4,5-dihydro-3H-1-thia-3,5,8-triazaacenaphthylene-2-carboxamide]	7.9

Same assay, conditions: unphosphorylated-BTK kinase domain, 50 nM Tracer 236, 60 minutes; pIC50 = negative log of the IC50 in molar

BTK_I_binding pIC50	Structure (SMILES)
8.1	Cc1cc(Oc2ccccc2)ccc1N1C(=O)Nc2c(C(=O)N[C@@H]3CCN(C(=O)/C=C/CN4C[C@@H]5OCCO[C@@H]5C4)C3)sc3nccc1c23 (single isomer, unassigned) [Example 555, 5-(*S)-(2-Methyl-4-phenoxyphenyl)-4-oxo-N—((R)-1-((E)-4-((4aR,7aS)-tetrahydro-2H-[1,4]dioxino[2,3-c]pyrrol-6(3H)-yl)but-2-enol)pyrrolidin-3-yl)-4,5-dihydro-3H-1-thia-3,5,8-triazaacenaphthylene-2-carboxamide]
6.8	Cc1cc(Oc2ccccc2)ccc1N1C(=O)Nc2c(C(=O)N[C@@H]3CCCN(C(=O)CN4CCCCC4)C3)sc3nccc1c23 [Example 393, (R)-5-(2-Methyl-4-phenoxyphenyl)-4-oxo-N-(1-(2-(piperidin-1-yl)acetyl)piperidin-3-yl)-4,5-dihydro-3H-1-thia-3,5,8-triazaacenaphthylene-2-carboxamide]
7.8	Cc1cc(Oc2ccccc2)ccc1N1C(=O)Nc2c(C(=O)N[C@@H]3CCCN(C(=O)/C(C#N)=C/C4(C)COC4)C3)sc3nccc1c23 (single isomer, unassigned) [Example 387, (R,E)-N-(1-(2-Cyano-3-(3-methyloxetan-3-yl)acryloyl)piperidin-3-yl)-5-(*R)-(2-methyl-4-phenoxyphenyl)-4-oxo-4,5-dihydro-3H-1-thia-3,5,8-triazaacenaphthylene-2-carboxamide]
8.0	C=CC(=O)N1CCC[C@@H](NC(=O)c2sc3nccc4c3c2NC(=O)N4c2cccc(-c3ccccc3Cl)c2)C1 [Example 510, (R)—N-(1-Acryloylpiperidin-3-yl)-5-(2′-chloro-[1,1′-biphenyl]-3-yl)-4-oxo-4,5-dihydro-3H-1-thia-3,5,8-triazaacenaphthylene-2-carboxamide]

Second part, the compound before the results:

Structure (SMILES)	BTK_I_binding pIC50
Cc1ccc(N2C(=O)Nc3c(C(=O)N[C@@H]4CCCNC4)sc4nccc2c34)cc1C(F)(F)F [Example 461, (R)-5-(4-Methyl-3-(trifluoromethyl)phenyl)-4-oxo-N-(piperidin-3-yl)-4,5-dihydro-3H-1-thia-3,5,8-triazaacenaphthylene-2-carboxamide]	5.0
Cc1cc(C(C)C)ccc1N1C(=O)Nc2c(C(=O)N[C@@H]3CCCN(C)C3)sc3nccc1c23 [Example 447, (R)-5-(4-Isopropyl-2-methylphenyl)-N-(1-methylpiperidin-3-yl)-4-oxo-4,5-dihydro-3H-1-thia-3,5,8-triazaacenaphthylene-2-carboxamide]	5.6
C=CC(=O)N1CCC[C@@H](NC(=O)c2sc3nccc4c3c2NC(=O)N4c2ccc(OC)c(C(F)(F)F)c2)C1 [Example 455, (R)—N-(1-Acryloylpiperidin-3-yl)-5-(4-methoxy-3-(trifluoromethyl)phenyl)-4-oxo-4,5-dihydro-3H-1-thia-3,5,8-triazaacenaphthylene-2-carboxamide]	<5
C=CC(=O)N1CCC[C@@H](NC(=O)c2sc3nccc4c3c2NC(=O)N4c2cccc(-c3cccc(F)c3F)c2)C1 [Example 498, (R)—N-(1-Acryloylpiperidin-3-yl)-5-(2′,3′-difluoro-[1,1′-biphenyl]-3-yl)-4-oxo-4,5-dihydro-3H-1-thia-3,5,8-triazaacenaphthylene-2-carboxamide]	7.8

Same assay, conditions: unphosphorylated-BTK kinase domain, 60 minutes incubation, 50 nM Tracer 236; pIC50 = negative log of the IC50 in molar

Structure (SMILES)	BTK_I_binding pIC50
O=C(N[C@@H]1CCN(Cc2ccccc2)C1)c1sc2nccc3c2c1NC(=O)N3c1ccc(Oc2ccccc2)cc1 [Example 925, (R)—N-(1-Benzylpyrrolidin-3-yl)-4-oxo-5-(4-phenoxyphenyl)-4,5-dihydro-3H-1-thia-3,5,8-triazaacenaphthylene-2-carboxamide]	6.3
O=C(NCCN1CCOCC1)c1sc2nccc3c2c1NC(=O)N3c1ccc(Oc2ccccc2)cc1 [Example 933, N-(2-Morpholinoethyl)-4-oxo-5-(4-phenoxyphenyl)-4,5-dihydro-3H-1-thia-3,5,8-triazaacenaphthylene-2-carboxamide]	6.1
Cc1cc(Oc2ccccc2)ccc1N1C(=O)Nc2c(C(=O)N[C@H]3CCCN(C(=O)/C(C#N)=C/C(C)(C)C)C3)sc3nccc1c23 [Example 904, (S,E)-N-(1-(2-Cyano-4,4-dimethylpent-2-enoyl)piperidin-3-yl)-5-(2-methyl-4-phenoxyphenyl)-4-oxo-4,5-dihydro-3H-1-thia-3,5,8-triazaacenaphthylene-2-carboxamide]	6.7

From patent US10800792B2, “Inhibitors of Bruton's tyrosine kinase and method of their use” (JANSSEN PHARMACEUTICA NV, priority 2015, dated 2020)
